Patent publication US8951500B2, “13C-MR imaging or spectroscopy of cell death” (GE Healthcare AS, priority 2006, dated 2015)

Legend:
[1] = tested on: EL4 murine lymphoma cells; assay: 13C-MR spectroscopy of hyperpolarised 13C-label flux between pyruvate and lactate in EL4 cell suspensions; type: cell-based; details: co-treatment of cells with the cell death inducer
Procedure: EL4 murine lymphoma cells (10^8 cells) were treated with 15 μM etoposide (PCH Pharmachemie BV, Harleem), a compound which is known to induce cell death after 16 h exposure. A separate set of cells was treated for 16 hours with 15 μM etoposide plus 20 mM nicotinamide, a known PARP inhibitor. Cell death (apoptosis and necrosis) was confirmed by acridine orange and propidium iodide staining. The cells were washed 3 times with RPMI 1640 growth medium containing 10% FCS at 37° C. and to 2 ml of the etoposide- and etoposide/nicotinamide treated EL4 cell suspension 2 ml of the imaging medium according to Example 5 were added. The final cell suspension thus contained 30 mM hyperpolarised ^13C1-pyruvate and 37.5 mM lactate.
^13C-signal intensities from ^13C-pyruvate and ^13C-lactate in etoposide-treated EL4 cell suspensions as described in 6.1 were followed over a time period of 240 seconds from the time of addition of the imaging medium. […]
^13C-signal intensities from ^13C-pyruvate and ^13C-lactate in etoposide-treated and etoposide/nicotinamide treated EL4 cell suspensions as described in 6.1 were followed over a time period of 240 seconds from the time of addition of the imaging medium. […] The data were fit to a two-site exchange model based on the modified Bloch equations, and the rate constants for the forward and reverse exchange ^13C-fluxes were determined. […]

[2] = tested on: EL-4 murine lymphoma cells; assay: 31P-NMR measurements on acid-extracts of EL-4 cells induced to undergo cell death; type: cell-based
From the text: Loss of NAD(H) can be explained by DNA-damage induced activation of the enzyme poly-ADP-ribose polymerase (PARP), which […] various proteins and uses NAD^+ as a substrate.

[3] = T1 relaxation of 13C1-pyruvate in human full blood; type: physicochemical; details: human full blood at 37° C.
From the text: The amount of alanine, bicarbonate and lactate is dependent on the metabolic status of the tissue under investigation.
The isotopic enrichment of the hyperpolarised ^13C-pyruvate used in the method of the invention is preferably at least 75%, more preferably at least 80% and especially preferably at least 90%, an isotopic enrichment of over 90% being most preferred. Ideally, the enrichment is 100%. ^13C-pyruvate used in the method of the invention may be isotopically enriched at the C1-position (in the following denoted ^13C1-pyruvate), at the C2-position (in the following denoted ^13C2-pyruvate), at the C3-position (in the following denoted ^13C3-pyruvate), at the C1- and the C2-position (in the following denoted ^13C1,2-pyruvate), at the C1- and the C3-position (in the following denoted ^13C1,3-pyruvate), at the C2- and the C3-position (in the following denoted ^13C2,3-pyruvate) or at the C1-, C2- and C3-position (in the following denoted ^13C1,2,3-pyruvate). Isotopic enrichment at the C1-position is preferred since ^13C1-pyruvate has a higher T1 relaxation in human full blood at 37° C. (about 42 s) than ^13C-pyruvate which is isotopically enriched at other C-positions.

EL-4 tumour [4] = assay: 1H NMR measurements on perchloric acid-extracts of freeze-clamped tumours; type: in vivo, mice; details: etoposide-treated tumours, extracts made immediately after MR experiments, n=8
Procedure: The data were collected 20 h after treatment of the animals with etoposide. […] These extracts were made immediately following completion of the MR experiments.

EL-4 tumour [5] = assay: Tumour cell death (histology) and tumour volume (1H spin echo images) in EL4 lymphoma-bearing mice; type: in vivo
EL-4 tumour [6] = assay: In vivo 13C-MR spectroscopy of pyruvate-lactate label flux in EL4 tumours after i.v. hyperpolarised 13C1-pyruvate
Procedure: (§1) Lymphoma tumours were produced in mice by subcutaneous implantation of EL4 cells. The mice were treated with an i.p. injection of 67 mg/kg etoposide. Tumour cell death following etoposide treatment was assessed histologically. Non-etoposide treated mice were used as control.
(§2) The time-dependent changes in the tumour signals from lactate and pyruvate were fit to the exchange model to obtain the apparent rate constants, and spin lattice relaxation times (FIG. 3B). The first 10-15 s of data acquisition were lost since this was the time taken to complete the injection and insert the ^13C surface coil probe assembly, containing the animal, into the imaging magnet.
(§3) The data were collected 20 h after treatment of the animals with etoposide. The increased SDs after 40 s reflect the decrease in signal-to-noise on the lactate and pyruvate resonances resulting from the loss of polarisation. […] These extracts were made immediately following completion of the MR experiments.
(§4) In another series of experiments, animals were etoposide-treated 24 h after imaging and then 24 h after etoposide treatment a second set of images were acquired, thus each animal could serve as its own control. However, as with the other experiments, there was little variation within the groups and the group results are presented.

EL-4 tumour [7] = tested on: EL-4 tumour
Procedure: as §1, §2, §3, §4

LDH = assay: Enzyme activity measurements on protein extracts from freeze-clamped tumours; type: in vivo, mice; details: drug-treated tumours, n=3
[8] = etoposide-treated EL-4 cells compared to untreated control cells

## NC(=O)c1cccc(N)c1 [3-aminobenzamide]
[1]
  ability to transfer hyperpolarised 13C-label between pyruvate and lactate pools: maintained their ability to transfer the hyperpolarised ^13C-label between the pyruvate and lactate pools
[2]; 10 mM 3-aminobenzamide
  effect of PARP inhibition on loss of NAD(H) and increase in FBP concentration in dying cells: inhibited the loss of NAD(H) and the increase in FBP concentration

## CC(=O)C(=O)O [^13C1-pyruvate]
[3]
  T1 relaxation: about 42 s

## COc1cc([C@@H]2c3cc4c(cc3[C@@H](O[C@@H]3O[C@@H]5CO[C@@H](C)O[C@H]5[C@H](O)[C@H]3O)[C@H]3COC(=O)[C@H]23)OCO4)cc(OC)c1O [etoposide]
EL-4 tumour [4]
  lactate/pyruvate ratio by 1H NMR: 5.1±2.0
EL-4 tumour [5]; 24 h after drug treatment, 67 mg/kg i.p., n=3
  cell death: 37.0±3.8%
EL-4 tumour [5]; treated tumours, multi-slice 1H spin echo images, n=8
  tumour volume: 1.3±0.2 cm^3
EL-4 tumour [6]; etoposide-treated tumours, 20 h after treatment, n=8
  rate constant kP^app: 0.056 ± 0.005 s⁻¹
EL-4 tumour [6]; etoposide-treated tumours, n=8
  calculated equilibrium lactate/pyruvate ratio (L∞/P∞): 2.7±0.4
EL-4 tumour [6]; versus control tumours, data collected 20 h after treatment
  decrease in the rate constant kP^app: approximately 25%
EL-4 tumour [7]; following versus before treatment, n=4
  decrease in flux: 39%
EL-4 tumour [7]; iv, 24 h
  rate constant: 0.040 ± 0.012 s⁻¹
[2]; [8]
  intensity of the resonances from NAD(H): a decrease in the intensity of the resonances from NAD(H)
  resonances from fructose-1,6-bisphosphate (FBP): an increase in the resonances from the glycolytic intermediate, fructose-1,6-bisphosphate (FBP)
LDH
  LDH activity: 100±20 units/g wet wt.

## NC(=O)c1cccnc1 [nicotinamide]
[1]
  ability to transfer hyperpolarised 13C-label between pyruvate and lactate pools: maintained their ability to transfer the hyperpolarised ^13C-label between the pyruvate and lactate pools
[2]; 20 mM nicotinamide
  effect of PARP inhibition on loss of NAD(H) and increase in FBP concentration in dying cells: inhibited the loss of NAD(H) and the increase in FBP concentration
